# From ChEMBL document CHEMBL1126628, “Design, synthesis, and neurochemical evaluation of 5-(3-alkyl-1,2,4- oxadiazol-5-yl)-1,4,5,6-tetrahydropyrimidines as M1 muscarinic receptor agonists” (J Med Chem, 1993)
# Tests used:
# [1] = biological target: Muscarinic acetylcholine receptor
# Description: Inhibition of [3H]-(R)-QNB binding to muscarinic receptors of rat brain membranes.
# [2] = species: Rattus norvegicus
# Description: Ability to stimulate phosphoinositol metabolism was examined in the rat cerebral cortex at 100 uM
# [3] = species: Rattus norvegicus; test: cells; conditions: Hippocampus
# Description: Inhibition of the response (stimulation of phosphoinositol metabolism in rat hippocampus) to 10 uM of compound by p-F-hexahydrosiladifenidol
# [4] = species: Rattus norvegicus; test: cells; conditions: Hippocampus; remark: listed apart in the source
# Description: Inhibition of the response (stimulation of phosphoinositol metabolism in rat hippocampus) to 10 uM of compound by AF-DX 116
# [5] = species: Rattus norvegicus; test: cells; conditions: Hippocampus; remark: listed apart in the source
# Description: Effective concentration of compound that can stimulate phosphoinositol metabolism in rat hippocampus
# [6] = species: Rattus norvegicus; test: cells; conditions: Hippocampus; remark: listed apart in the source
# Description: Inhibition of the response (stimulation of phosphoinositol metabolism in rat hippocampus) to 10 uM of compound by pirenzepine
# [7] = species: Rattus norvegicus; test: Ability to stimulate phosphoinisitol metabolism was examined in the rat hippocampus represented as % maximal stimulation; format: functional
# [8] = species: Rattus norvegicus; test: Ability to stimulate phosphoinisitol metabolism was examined in the rat hippocampus; format: functional
Structure (SMILES),IC50 [1],PI [2],other results
CCCc1noc(C2CN=CNC2)n1.O=C(O)C(F)(F)F (configuration not stated),0.55 µM,79%,–
CCc1noc(C2CN=CNC2)n1.O=C(O)C(F)(F)F (configuration not stated),–,130%,–
CCCCc1noc(C2CN=CNC2)n1.O=C(O)C(F)(F)F (configuration not stated),0.49 µM,61%,–
CCCCCCCc1noc(C2CN=CNC2)n1.O=C(O)C(F)(F)F (configuration not stated),2.3 µM,34%,–
CCCCCCc1noc(C2CN=CNC2)n1.O=C(O)C(F)(F)F (configuration not stated),2.3 µM,4.3%,–
Cc1noc(C2CN=CNC2)n1.O=C(O)C(F)(F)F (configuration not stated),–,700%,IC50 [3]: 1200 nM; IC50 [4]: 1700 nM; EC50 [5]: 5.2 µM; IC50 [6]: 38 nM; Max stimulation [7]: 510%
Cc1noc(C2CN3CCC2CC3)n1 (configuration not stated),0.35 µM,100%,–
CC(=O)OC1CN2CCC1CC2 (configuration not stated) [ACECLIDINE],–,80%,IC50 [3]: 23 nM; Max stimulation [8]: 390%
CCCCCCCCc1noc(C2CN=CNC2)n1.O=C(O)C(F)(F)F (configuration not stated),0.53 µM,28%,–
CCCCCc1noc(C2CN=CNC2)n1.O=C(O)C(F)(F)F (configuration not stated),0.56 µM,29%,–
Cc1noc(C2=CCCN(C)C2)n1,0.69 µM,50%,–
C[N+](C)(C)CCOC(N)=O.[Cl-] [CARBACHOL],–,470%,–
